From patent publication US20120071475A1, “UREA DERIVATIVES HAVING PI3K-INHIBITING ACTIVITY” (SHIONOGI & CO., LTD., priority 2009, published 2012)
pKi: −log10 of the molar value. Converted amounts (≈) assume the structure as drawn. Like-named read-outs stand apart in the source and are kept apart here.

Key:
PI3Kβ = PI3Kβ (Homo sapiens, UniProt P42338); assay: PI3Kβ inhibitory activity (Ki value); format: biochemical
Procedure: According to Example 2 above, after 80 μg/mL PI-3 kinase γ of the enzyme solution (80 μg/mL PI-3 kinase γ, 10 mmol/L MgCl2, 5 mmol/L DTT) was changed to 60 μg/mL PI-3 kinase β, a method similar to the method for measuring PI3Kγ inhibitory activity was used to calculate an inhibition ratio, which was defined as the PI3Kβ inhibitory activity.
According to Example 4 above, a Km value for PI3Kβ was determined to calculate a Ki value.

hERG channel (IKr) = molecular target: T1, hERG channel (IKr) (Homo sapiens, UniProt Q12809); assay: hERG test (whole-cell patch-clamp, IKr in HEK293 cells); format: cell-based; details: human, HEK293 cells expressing hERG channel, pH 7.4, inhibition of maximum tail current (IKr), compound 1 μM
T1 construct: expressed in transfected cells; host or cells: HEK293
T1 sequence (Q12809 whole entry): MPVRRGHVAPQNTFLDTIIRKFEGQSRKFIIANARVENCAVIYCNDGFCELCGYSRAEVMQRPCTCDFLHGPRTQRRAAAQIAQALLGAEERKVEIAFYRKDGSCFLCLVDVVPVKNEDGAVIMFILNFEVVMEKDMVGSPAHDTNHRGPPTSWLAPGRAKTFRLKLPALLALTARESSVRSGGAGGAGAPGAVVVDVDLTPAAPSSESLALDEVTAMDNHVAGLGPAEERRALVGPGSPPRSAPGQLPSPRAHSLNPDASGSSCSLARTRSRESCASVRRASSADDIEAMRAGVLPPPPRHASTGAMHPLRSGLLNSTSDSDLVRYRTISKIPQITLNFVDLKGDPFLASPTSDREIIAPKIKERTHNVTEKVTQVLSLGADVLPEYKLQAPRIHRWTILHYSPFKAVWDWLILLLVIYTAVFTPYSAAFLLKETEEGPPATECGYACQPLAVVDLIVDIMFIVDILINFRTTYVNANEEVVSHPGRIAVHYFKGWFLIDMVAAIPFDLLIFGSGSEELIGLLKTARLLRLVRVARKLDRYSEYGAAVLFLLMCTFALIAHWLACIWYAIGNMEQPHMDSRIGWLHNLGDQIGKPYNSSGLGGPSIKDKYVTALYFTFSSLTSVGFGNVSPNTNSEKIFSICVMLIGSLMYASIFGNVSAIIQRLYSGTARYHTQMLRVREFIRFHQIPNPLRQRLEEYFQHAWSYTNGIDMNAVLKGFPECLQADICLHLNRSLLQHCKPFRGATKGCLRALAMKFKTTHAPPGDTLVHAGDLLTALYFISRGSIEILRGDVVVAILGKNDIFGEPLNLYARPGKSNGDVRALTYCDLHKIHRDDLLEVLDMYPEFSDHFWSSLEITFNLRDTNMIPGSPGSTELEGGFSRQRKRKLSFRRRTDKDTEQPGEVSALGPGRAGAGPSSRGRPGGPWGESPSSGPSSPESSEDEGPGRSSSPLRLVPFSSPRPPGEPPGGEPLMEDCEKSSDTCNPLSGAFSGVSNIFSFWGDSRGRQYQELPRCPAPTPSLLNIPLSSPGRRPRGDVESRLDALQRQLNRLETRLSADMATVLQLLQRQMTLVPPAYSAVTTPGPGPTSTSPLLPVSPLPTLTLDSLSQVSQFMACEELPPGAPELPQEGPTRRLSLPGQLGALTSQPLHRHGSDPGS
How it was run: (§1)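 hERG-expressing HEK293 cells, automated whole-cell patch clamp: hold −80 mV, +50 mV for 2 s, then −50 mV for 2 s to record IKr tail current. Compound in extracellular solution (pH 7.4) for 10 min at room temperature; inhibition of maximum tail current calculated versus pre-application and compared with 0.1% DMSO vehicle.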

[1] = BA test (oral absorbability, bioavailability); format: in vivo
Procedure: An experimental material and a method for examining oral absorbability
(1) Animals used: rats or mice were used. (2) Breeding condition: chow and sterilized tap water were allowed to be taken in freely. (3) Setting of a dosage and grouping: a predetermined dosage was administered orally or intravenously. Groups were formed as shown below. (A dosage varied depending on each compound)
Oral administration 1-30 mg/kg (n=2 to 3)
Intravenous administration 0.5-10 mg/kg (n=2 to 3)
(4) Preparation of administered liquid: In oral administration, a solution or suspension was administered. In intravenous administration, after solubilization, the administration was performed. (5) Method of Administration: In oral administration, compulsory administration to the stomach was conducted using an oral probe. In intravenous administration, administration from the caudal vein was conducted using a syringe with an injection needle. (6) Evaluation item: Blood was chronologically collected, and then the drug concentration in blood plasma was measured using a LC/MS/MS. (7) Statistical analysis: With regard to a shift in plasma concentration, the plasma concentration-time area under the curve (AUC) was calculated using a nonlinear least-squares program WinNonlin®. Bioavailability (BA) was calculated from the AUCs of the oral administration group and the intravenous administration group, respectively.

[2] = molecular target: T2, human ether-a-go-go related gene (hERG) channel (Homo sapiens, UniProt Q12809); assay: hERG test (whole-cell patch-clamp, IKr in HEK293 cells); format: cell-based; details: inhibition of maximum tail current (IKr), HEK293 cell expressing hERG, compound 1 μM, 10 minutes; 1 µM
T2 construct: expressed in transfected cells; host or cells: HEK293
T2 sequence (Q12809 whole entry): as above
How it was run: as §1

[3] = Solubility test (artificial intestinal juice pH 6.8, 1% DMSO); format: physicochemical; details: artificial intestinal juice pH 6.8 with 1% DMSO, fassgf or other biorelevant, kinetic from dmso stock, 25° C.
Procedure: The solubility of a compound was determined under a condition in which 1% DMSO was added. 10 mmol/L compound solution was prepared using DMSO, and then 6 μL of the compound solution was added to 594 μL of artificial intestinal juice in pH 6.8 (to 250 mL of 0.2 mol/L potassium dihydrogen phosphate reagent solution was added 118 mL of 0.2 mol/L NaOH reagent solution and water to provide a final volume of 1000 mL). After standing at 25° C. for 16 hours, the mixed solution was filtered with suction. The filtrate was diluted twice with methanol/water (1/1), and then a concentration in the filtration was measured with HPLC or LC/MS/MS by the absolute calibration method.

[4] = class symbols, read-out: PI3K β Ki

Sequence of PI3Kβ (P42338 whole entry, species assumed): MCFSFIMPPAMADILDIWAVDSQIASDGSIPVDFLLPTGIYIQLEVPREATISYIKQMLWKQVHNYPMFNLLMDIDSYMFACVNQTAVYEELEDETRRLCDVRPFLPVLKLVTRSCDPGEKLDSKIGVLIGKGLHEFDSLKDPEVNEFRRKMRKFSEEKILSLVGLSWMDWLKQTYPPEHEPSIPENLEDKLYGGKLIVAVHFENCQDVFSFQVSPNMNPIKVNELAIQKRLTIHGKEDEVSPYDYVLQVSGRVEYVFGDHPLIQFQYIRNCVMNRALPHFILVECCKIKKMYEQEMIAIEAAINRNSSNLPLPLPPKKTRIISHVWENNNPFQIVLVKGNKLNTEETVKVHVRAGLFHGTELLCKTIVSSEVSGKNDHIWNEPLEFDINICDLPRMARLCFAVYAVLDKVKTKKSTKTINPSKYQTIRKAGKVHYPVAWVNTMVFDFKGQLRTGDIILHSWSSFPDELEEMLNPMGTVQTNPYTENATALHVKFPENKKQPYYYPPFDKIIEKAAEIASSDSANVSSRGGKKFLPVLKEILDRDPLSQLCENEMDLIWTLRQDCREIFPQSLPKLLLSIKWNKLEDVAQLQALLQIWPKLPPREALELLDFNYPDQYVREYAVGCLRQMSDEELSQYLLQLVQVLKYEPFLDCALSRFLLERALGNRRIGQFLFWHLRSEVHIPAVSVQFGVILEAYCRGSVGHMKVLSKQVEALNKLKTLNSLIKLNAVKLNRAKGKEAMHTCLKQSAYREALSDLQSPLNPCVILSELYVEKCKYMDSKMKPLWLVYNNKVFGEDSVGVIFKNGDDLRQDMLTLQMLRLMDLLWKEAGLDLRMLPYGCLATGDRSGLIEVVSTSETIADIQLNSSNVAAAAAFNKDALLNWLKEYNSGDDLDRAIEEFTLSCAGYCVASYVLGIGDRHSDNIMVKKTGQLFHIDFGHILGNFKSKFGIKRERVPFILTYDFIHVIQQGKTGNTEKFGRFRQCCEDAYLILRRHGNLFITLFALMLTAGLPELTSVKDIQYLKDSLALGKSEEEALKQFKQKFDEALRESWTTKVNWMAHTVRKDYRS
Sequence of PI3Kβ (P27986 whole entry partner, species assumed): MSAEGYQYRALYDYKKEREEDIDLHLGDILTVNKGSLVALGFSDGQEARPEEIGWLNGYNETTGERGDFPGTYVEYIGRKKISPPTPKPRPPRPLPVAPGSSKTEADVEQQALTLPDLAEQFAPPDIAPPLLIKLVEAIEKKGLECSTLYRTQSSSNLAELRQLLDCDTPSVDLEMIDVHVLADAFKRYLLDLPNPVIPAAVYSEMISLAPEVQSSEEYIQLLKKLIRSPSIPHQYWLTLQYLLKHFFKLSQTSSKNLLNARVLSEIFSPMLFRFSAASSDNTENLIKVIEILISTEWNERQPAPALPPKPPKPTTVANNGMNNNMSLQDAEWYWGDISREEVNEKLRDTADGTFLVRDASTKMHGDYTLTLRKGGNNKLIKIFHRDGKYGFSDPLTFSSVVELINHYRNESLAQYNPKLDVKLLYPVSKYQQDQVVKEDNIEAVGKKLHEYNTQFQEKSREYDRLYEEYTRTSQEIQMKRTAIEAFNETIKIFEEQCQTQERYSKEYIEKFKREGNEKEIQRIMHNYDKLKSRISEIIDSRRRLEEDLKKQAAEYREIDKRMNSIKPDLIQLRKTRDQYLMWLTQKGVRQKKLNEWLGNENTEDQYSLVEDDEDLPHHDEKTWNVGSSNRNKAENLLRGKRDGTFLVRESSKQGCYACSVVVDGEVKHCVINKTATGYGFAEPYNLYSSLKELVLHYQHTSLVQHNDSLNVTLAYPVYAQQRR

## COc1cncc(-c2ccc3nc(NC(=O)Nc4ccccc4OCCC(C)C)cn3n2)c1 [Compound I-114]
PI3Kβ; [4]
  pKi: ≥ 5.52
PI3Kβ; read-out: PI3Kβ Ki value
  pKi: 6.18

## COc1cc(N2CCc3nc(NC(=O)Nc4cn(C)nc4C(=O)NCC(F)(F)F)sc3C2)nc(OC)n1 [Compound I-148]
hERG channel (IKr)
  inhibition at 10 min, 1 µM: 3.3%
[1]
  BA (Rat, 1 mg/kg, Methylcellulose suspension Oral Administration): 45.1%
PI3Kβ; [4]
  pKi: ≥ 6.52

## COc1cc(N2CCc3nc(NC(=O)Nc4ccccc4C(=O)NC(C)C(O)C(F)(F)F)sc3C2)nc(OC)n1 (stereo not shown) [Compound I-139]
[2]
  hERG(at 1 μM) % Inhibition: 8.5%

## COc1nc(Cl)cc(N2CCc3nc(NC(=O)Nc4ccccc4C(=O)NC4CCCOC4)sc3C2)n1 (stereo not shown) [Compound I-197]
hERG channel (IKr)
  inhibition at 10 min, 1 µM: 4.8%
PI3Kβ; [4]
  pKi: < 5.52

## COc1cncc(-c2cc(NC(=O)Nc3ccccc3C(=O)NC(C)C)nn2C)c1 [Compound I-226]
PI3Kβ; [4]
  pKi: < 5.52

## Cc1nc(NC(=O)Nc2ccccc2C(=O)NC(C)C)sc1-c1ccc(S(C)(=O)=O)c(F)c1 [Compound I-127]
hERG channel (IKr)
  inhibition at 10 min, 1 µM: 0.6%
PI3Kβ; [4]
  pKi: ≥ 5.52
PI3Kβ; read-out: PI3Kβ Ki value
  pKi: 6.47

## CC(C)NC(=O)c1ccccc1NC(=O)Nc1nc2c(s1)CN(c1cccc(S(C)(=O)=O)c1)CC2 [Compound I-198]
hERG channel (IKr)
  inhibition at 10 min, 1 µM: 5.9%
[3]
  solubility at 16 h: 10.1 µM (≈ 5.19 µg/mL)

## COc1cc(N2CCc3nc(NC(=O)Nc4ccccc4C(=O)NC(C)C)sc3C2)nc(OC)n1 [Compound I-12]
[1]
  BA (Rat, 1 mg/kg, Methylcellulose suspension Oral Administration): 46.8%
PI3Kβ; [4]
  pKi: ≥ 5.52
PI3Kβ; read-out: PI3Kβ Ki value
  pKi: 6.47

## CC(C)NC(=O)c1ccccc1NC(=O)Nc1nc2c(s1)CN(c1cncc(C(F)(F)F)c1)CC2 [Compound I-131]
hERG channel (IKr)
  inhibition at 10 min, 1 µM: 3.9%
PI3Kβ; [4]
  pKi: < 5.52

## COc1cc(N2CCc3nc(NC(=O)Nc4ccccc4C(=O)NN4CCN(C)CC4)sc3C2)nc(OC)n1 [Compound I-195]
[3]
  solubility at 16 h: > 50 µM

## Cc1nc(NC(=O)Nc2ccccc2C(=O)NC(C)C)sc1-c1csc(S(=O)(=O)N(C)CCN(C)C)c1 [Compound I-191]
[3]
  solubility at 16 h: > 50 µM

## COc1nc(Cl)cc(N2CCc3nc(NC(=O)Nc4cnccc4C(=O)NC(C)C)sc3C2)n1 [Compound I-91]
hERG channel (IKr)
  inhibition at 10 min, 1 µM: 0.9%
PI3Kβ; [4]
  pKi: ≥ 5.52

## COc1cc(N2CCc3nc(NC(=O)Nc4ccccc4C(=O)NCCF)sc3C2)nc(OC)n1 [Compound I-88]
hERG channel (IKr)
  inhibition at 10 min, 1 µM: 5.7%

## COc1cc(N2CCc3nc(NC(=O)Nc4ccccc4C(=O)NC4CCOCC4)sc3C2)nc(OC)n1 [Compound I-203]
hERG channel (IKr)
  inhibition at 10 min, 1 µM: 6.7%
